Results: PMC6943578, “Isolation of Novel ACE-Inhibitory and Antioxidant Peptides from Quinoa Bran Albumin Assisted with an In Silico Approach: Characterization, In Vivo Antihypertension, and Molecular Docking” (Molecules, 2019)
pIC50: −log10 of the molar value. Like-named read-outs stand apart in the source and are kept apart here. Where a SMILES comes first, the peptide text is derived from it.

Columns and labels:
ACE = test system: ACE; parameters: method as in 2 sources, one per row (each row's own in cited_ref): ref 6 = [6]; PMID 28317757; doi:10.1016/j.foodchem.2017.02.039; 6. Lee S.Y. Hur S.J. Antihypertensive peptides from animal products, marine organisms, and plants Food Chem. 2017 228 506 517 10.1016/j.foodchem.2017.02.039 28317757 ||| ref 25, 30, 31 = [25]; PMID 30229250; doi:10.1039/C8FO00569A; 25. Ling Y. Sun L.P. Zhuang Y.L. Preparation and identification of novel inhibitory angiotensin-I-converting enzyme peptides from tilapia skin gelatin hydrolysates: inhibition kinetics and molecular d || [30]; doi:10.1016/j.lwt.2018.12.059; 30. Bhaskara B. Ananthanarayana L. Jamdar S. Purification, identification, and characterization of novel angiotensin I converting enzyme (ACE) inhibitory peptides from alcalase digested horse gram flo || [31]; doi:10.1016/j.lwt.2016.08.047; 31. Wang X. Chen H. Fu X. Li S. Wei J. A novel antioxidant and ACE inhibitory peptide from rice bran protein: Biochemical characterization and molecular docking study LWT-Food Sci. Technol. 2017 75 93; conditions: peptides from tilapia skin gelatin, horse gram protein, rice bran protein; read-out: IC50 of ACE-inhibitory activity; cited from earlier work
Excerpt: With the help of databases AHTPDB and BIOPEP, and based on the similarity to the already reported ACE-inhibitory and antioxidant peptides, three peptides, namely […]

[1] = test system: spontaneously hypertensive rats (SHRs); assay: Body weight of SHRs during administration; type: in vivo, rat; conditions: oral 50, 100, 150 mg/kg once daily, five weeks; p > 0.05
Experimental: Following the method indicated by Zou et al. [26] with some modifications, 20 male SHRs (10 weeks, 230 ± 20 g body weight (bw)) were purchased from Vital River Laboratory Animal Technology Co., Ltd (Beijing, China). After conditioning for one week, the rats were divided into five groups of four rats each. […] High dosage group (150 mg/kg body weight once daily), middle dosage group (100 mg/kg body weight once daily), and low dosage group (50 mg/kg body weight once daily) were orally given the peptide dissolved in 0.9% saline solution via gastric intubation. All of the treatments were conducted for five consecutive weeks. Each week, the systolic blood pressure (SBP) and diastolic blood pressure (DBP) of the rats were measured with a non-invasive blood-pressure apparatus (BP-300A Non-Invasive Blood Pressure Monitoring System, Chengdu, China). The body weight and heart rate of the rats were determined at the same time. At least five readings were recorded and averaged out.

ACE (from rabbit lung) = target: T1, ACE (from rabbit lung) (Oryctolagus cuniculus, UniProt P12822); assay: ACE-inhibitory activity, HHL substrate, spectrophotometric; type: biochemical; conditions: synthetic peptide, 37 °C, 1 h, absorbance at 228 nm, from regression of % inhibition vs concentration, repeated at least three times
T1 construct: ACE (from rabbit lung) were purchased from Sigma-Aldrich Co; purchased Sigma-Aldrich Co; host or cells: rabbit lung tissue
T1 sequence (P12822 34-1310): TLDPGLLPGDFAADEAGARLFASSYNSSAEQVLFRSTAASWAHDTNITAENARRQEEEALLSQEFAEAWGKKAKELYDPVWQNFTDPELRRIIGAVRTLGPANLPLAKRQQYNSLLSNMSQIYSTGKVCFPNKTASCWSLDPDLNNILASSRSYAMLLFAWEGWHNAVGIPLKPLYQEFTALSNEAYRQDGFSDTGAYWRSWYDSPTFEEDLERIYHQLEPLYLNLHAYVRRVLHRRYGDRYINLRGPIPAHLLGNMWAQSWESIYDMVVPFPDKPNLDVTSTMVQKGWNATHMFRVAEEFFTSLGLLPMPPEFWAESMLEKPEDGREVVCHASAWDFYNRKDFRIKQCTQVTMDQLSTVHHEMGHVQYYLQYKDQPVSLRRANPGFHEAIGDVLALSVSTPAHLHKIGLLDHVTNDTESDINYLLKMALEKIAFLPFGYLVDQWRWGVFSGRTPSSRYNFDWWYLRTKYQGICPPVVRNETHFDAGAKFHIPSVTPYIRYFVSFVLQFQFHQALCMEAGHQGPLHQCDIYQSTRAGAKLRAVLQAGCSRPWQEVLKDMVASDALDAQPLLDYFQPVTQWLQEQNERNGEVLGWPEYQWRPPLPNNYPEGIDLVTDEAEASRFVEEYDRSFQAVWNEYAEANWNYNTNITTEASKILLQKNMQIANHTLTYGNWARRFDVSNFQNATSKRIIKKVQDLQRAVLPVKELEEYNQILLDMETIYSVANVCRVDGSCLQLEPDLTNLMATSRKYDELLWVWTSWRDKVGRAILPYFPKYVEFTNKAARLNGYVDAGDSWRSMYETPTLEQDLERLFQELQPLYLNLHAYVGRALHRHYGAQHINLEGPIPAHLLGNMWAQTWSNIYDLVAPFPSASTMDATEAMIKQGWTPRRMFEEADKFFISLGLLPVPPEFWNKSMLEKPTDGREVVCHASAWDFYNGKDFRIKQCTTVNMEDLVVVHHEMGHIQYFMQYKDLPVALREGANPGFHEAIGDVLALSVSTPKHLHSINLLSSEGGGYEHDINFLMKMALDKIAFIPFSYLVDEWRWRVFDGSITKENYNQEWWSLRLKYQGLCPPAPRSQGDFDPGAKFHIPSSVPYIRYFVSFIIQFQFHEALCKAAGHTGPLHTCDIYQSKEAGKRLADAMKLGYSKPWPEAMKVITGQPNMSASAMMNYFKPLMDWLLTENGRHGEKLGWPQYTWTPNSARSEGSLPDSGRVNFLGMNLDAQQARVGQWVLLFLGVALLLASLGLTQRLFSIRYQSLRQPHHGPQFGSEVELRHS
Experimental: The ACE-inhibitory activity was evaluated using HHL as a substrate by monitoring the released hippuric acid using a spectrophotometric method. Briefly, the reaction system comprised 50 µL of ACE (25 mU), 150 µL of 8.3 mM HHL, and 50 µL of sample solutions. After incubation in a shaking water bath (37 °C) for 1 h, 1 M HCl (250 µL) was added to stop the reaction. The hippuric acid formed was subsequently extracted by 1.4 mL ethyl acetate. After centrifugation, 1 mL of the supernatant was collected and evaporated at 80 °C for 60 min in a vacuum. The residue was then dissolved in 2 mL of distilled water and the absorbance at 228 nm was read. The inhibitory activity was calculated as follows:(1) ACE inhibition % = 1− AS/AC ×100, where AC is the absorbance of the ACE solution without an inhibitor and AS is the absorbance of the mixture-contained samples. The IC50 value, the inhibitor concentration required to inhibit half the ACE activity, was acquired by nonlinear regression from a plot of percentage ACE inhibition versus different inhibitor concentrations.

[2] = cited from earlier work
Excerpt: The presence of some metal ions like Fe^2+ and Cu^2+ can extremely accelerate the oxidative chain reaction of oil and induce the production of more various radicals. […] It was pointed out that amino acid residues such as Pro, Phe, and Arg in the side chain could act a ...

[3] = read-out: ABTS·+ scavenging ability IC50; cited from earlier work
Excerpt: ABTS·^+ scavenging activity represents the total antioxidant activity of potential antioxidants. […] Moreover, the presence of hydrophobic amino ...

Compound: VGLPNSR
- pIC50 (ACE): 4.09

Compound: CC[C@H](C)[C@H](NC(=O)[C@@H](NC(=O)[C@H](CCC(N)=O)NC(=O)CNC(=O)[C@@H](N)CCCNC(=N)N)C(C)C)C(=O)N[C@@H](Cc1ccc(O)cc1)C(=O)N[C@H](C(=O)N[C@@H](CC(C)C)C(=O)O)C(C)C (H-RGQVIYVL-OH)
- Side effect on SHRs (heart rate and body weight vs negative control) [1]: no obvious side effect
- IC50 (ACE (from rabbit lung)): 38.2 µM

Compound: YYIVS [literature peptide from sweet potato protein]
- Fe2+ chelating ability ([2]; at 3 mg/mL, peptide from sweet potato protein): 59.74%

Compound: Leu-Ala-Arg-Leu [literature peptide from tilapia gelatin]
- Fe2+ chelating ability ([2]; at 1 mg/mL, peptide from tilapia gelatin): 46.53%

Compound: QLLLQQ
- pIC50 (ACE): 4.12

Compound: VTSLDLPVLRW [literature antioxidant peptide]
- pIC50 [3]: 3.18

Compound: HPLDSLCL [literature antioxidant peptide]
- pIC50 [3]: 4.13
